The source of these data is publication PMC10112232, “Comparison of Toxicities among Different Bumped Kinase Inhibitor Analogs for Treatment of Cryptosporidiosis” (Antimicrobial Agents and Chemotherapy, 2023).

Like-named read-outs stand apart in the source and are kept apart here. A value given as a limit tells only on which side of the number the result lay.

For data set [1], the system named is C. hominis. The data set is described as follows: Efficacy in neonatal gnotobiotic piglets infected with C. hominis. The data set is classed as in vivo. Particulars: 5 mg/kg BID. The method, then: Rectal swabs were processed for oocyst count and DNA measurement. The plot represents mean ± SEM. Wilcoxon matched-pairs signed rank test was conducted using GraphPad Prism 7.03. […] The 5 day doses were given on days 0–4, the 8 day doses were given on days 0–7.
(§1) Methods for synthesis of BKIs ([17], [23]), efficacy against Nluc expressing C. parvum in infected adult IFN-γ KO mice ([6], [9]), in vivo mouse GI tract tissue exposure by LC/MS-MS analysis ([18], [28]), PK analysis of mouse plasma and brain tissue BKI concentrations by LC/MS-MS analysis ([29]), in vivo rat and dog cardiotoxicity screen ([30]), efficacy against IOWA-II strain C. parvum in infected neonatal calves ([13]), efficacy against C. hominis in infected piglets ([12]), in vitro inhibition of C. parvum CDPK1 (CpCDPK1) and human tyrosine kinase SRC (HsSRC) activity ([31]), in vitro inhibition of hERG ([32]), Nluc expressing C. parvum in vitro growth inhibition in infected HCT-8 cells ([6]), in vitro cytotoxicity in CRL-8155 and HepG2 cells ([29]), and mouse locomotor activity box ([33], [34]) have all been previously described. Analytes were measured by LC/MS-MS on an Acquity ultra performance liquid chromatography (UPLC) system in tandem with a Xevo TQ-S mass spectrometer (Waters, Milford, MA, USA).

Data set [2] is described as follows: 14-day multidose rat toxicity study. The data set is classed as in vivo. Particulars: rats. The protocol:
(§2) A control group of male and female rats were administered vehicle only for controls. […] Observations of feeding and general health were made twice daily. Clinical assessments were made at 1 h after each treatment. Blood was collected for hematology and blood chemistry before the first dose and prior to euthanasia. Necropsy and histology of organs (Liver, heart, lung, kidney, spleen, thymus, brain, spinal cord, nerves of the front and back legs, including muscle, bone marrow femur, stomach, small and large intestine, including lymph nodes, and femur and sternum, including epiphyseal plates, distal hind limb, and thyroid gland) were performed after euthanasia.

Data set [3] in a line: Multidose calf toxicity study. The data set is classed as in vivo. The note with it: calves. The protocol:
Male and female calves were dosed orally with 7.5 or 15 mg/kg BID for 5 days. Adverse effects began on day 4, so the 7.5 mg/kg group received 9 doses total and the 15 mg/kg group received 7 doses total before the experiment was terminated.
as §2

A short description of data set [4]: Metabolite identification in hepatocytes. Particulars: all tested species, product 1770-O-glucuronide. The data set is classed as in vitro ADME, mice, rats, dogs, monkeys, and humans. The protocol: BKI-1841 was also evaluated in these assays (Table 1). All results from these assays were favorable, including falling within the solubility range that correlated with efficacy for the AC scaffold ([17]).

Data set [5] deals with T1, C. parvum calcium dependent protein kinase 1 (CpCDPK1) (Cryptosporidium parvum, UniProt A3FQ16).
T1 sequence (A3FQ16 1-538): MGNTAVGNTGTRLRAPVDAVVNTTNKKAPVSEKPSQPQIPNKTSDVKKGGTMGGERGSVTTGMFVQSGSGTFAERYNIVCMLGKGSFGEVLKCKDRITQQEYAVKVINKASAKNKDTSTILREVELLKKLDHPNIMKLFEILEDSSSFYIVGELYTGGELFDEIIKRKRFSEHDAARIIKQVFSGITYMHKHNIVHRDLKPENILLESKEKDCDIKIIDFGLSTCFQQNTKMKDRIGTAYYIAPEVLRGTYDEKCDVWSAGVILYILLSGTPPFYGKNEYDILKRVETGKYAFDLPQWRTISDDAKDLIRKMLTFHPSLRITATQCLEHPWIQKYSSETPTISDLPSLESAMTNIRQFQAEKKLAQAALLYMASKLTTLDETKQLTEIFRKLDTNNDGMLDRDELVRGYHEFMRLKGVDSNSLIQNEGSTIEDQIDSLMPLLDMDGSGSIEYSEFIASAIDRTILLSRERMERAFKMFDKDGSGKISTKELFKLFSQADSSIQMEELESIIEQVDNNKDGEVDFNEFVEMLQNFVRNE
The arrangement: method as in PMID 30830766. The note with it: read-out: CpCDPK1 IC50; cited from earlier work.

The test system of data set [6] is Nluc expressing C. parvum. More on the design: method as in PMID 30830766. The note with it: cited from earlier work.
Data set [7] deals with CRL-8155 cells. More on the design: method as in PMID 30830766. The note with it: cited from earlier work.
The subject of data set [8] is Nluc expressing C. parvum. More on the design: method as in PMID 30830766. The note with it: IFN-γ KO mice, twice daily (BID) for 5 days; cited from earlier work.
Data set [9] can be described thus: In vitro cytotoxicity in HepG2 cells. Type of data set: cell-based. The note with it: human.
Description: as §1

Data set [10] in a line: In vitro cytotoxicity in CRL-8155 cells. The data set is classed as cell-based. Particulars: human.
Description: as §1

A short description of data set [11]: Aqueous solubility. Type of data set: physicochemical. From the text: TABLE 1 In vitro properties of bumped kinase inhibitors^a | column: Solubility at pH 2 (μM); Solubility at pH 6.5 (μM)
In data set [12] the test system is Nluc expressing C. parvum. The data set is described as follows: Efficacy in IFN-γ KO mice infected with Nluc expressing C. parvum. Type of data set: in vivo. Particulars: for difference in parasite excretion vs untreated control: n = 3. The protocol:
BKI-1841 was also tested at doses of 60, 30, 15, and 5 mg/kg once daily (QD) for 5 days, resulting in a minimum efficacious dose of 30 mg/kg that cleared parasite excretion to background levels by day 13 postinfection (Fig. 4).
FIG 4 Efficacy of BKI-1841 in interferon-γ knockout mice infected with nanoluciferase expressing C. parvum. Treatments were separated into two separate experiments for BKI-1841. Untreated control groups for each experiment are grouped with their associated treatment in the figure keys. Dotted line denotes the limit of detection. Treatments were dosed on days 6 through 10 postinfection. […] QD = once daily.
as §1

Data set [13] in a line: Cardiovascular testing in anesthetized rats. The data set is classed as in vivo, rat. The note with it: for HR / MAP / dP/dt@50: rat.
Description: as §1

A word on the IC50: it is the concentration needed to halve the response being measured. What is called EC50 is the concentration that produces a half-maximal response. As a reminder, the CC50 is the concentration giving 50% cytotoxicity. Turning to `CCOc1ccc2cc(-c3nn(C(C)(C)CCO)c(N)c3C(N)=O)ccc2c1` [BKI-1770], the “oocyst counts in feces vs controls” value in data set [1] (5-day treatment (P = 0.001)) and in data set [1] (8-day treatment (P = 0.0168)) was “significantly reduced” throughout. In data set [1] (both 5- and 8-day treatment groups), the diarrhea scores entry was “significantly reduced”. In addition, the plasma concentration in data set [2] (15 mg/kg group) amounted to 2.4 µM; in data set [2] (375 mg/kg group), 11.8 µM. Moreover, the toxicity findings entry was “no signs of toxicity” in [2] (oral 15 mg/kg QD, 14 days); “some signs of bone toxicity, including thickened epiphyseal plates and increased spongiosa” in data set [2] (oral 75 mg/kg QD, 14 days); “euthanized after 7 doses due to extreme signs of toxicity” in data set [2] (oral 375 mg/kg QD). For the same compound, the bone findings result in data set [3] (both 7.5 and 15 mg/kg BID groups) is “changes to the epiphyseal growth plates in the femur and sternum”. Besides, in data set [3] (oral 15 mg/kg BID, 7 doses total), the locomotion findings result is “locomotion problems on days 2 and 3”. Moreover, the “main mechanism of metabolism” value in data set [4] is on record as “glucuronylation”. Further, in data set [5], the IC50 was 2 nM. For the same compound, in data set [6], the EC50 is 500 nM. The cytotoxic concentration (CC50) in [7] is above 80000 nM. The minimum efficacious dose in data set [8] was 30 mg/kg.

By solubility is commonly meant the dissolved amount per volume that the medium holds. Consider `CCOc1ccc2cc(-c3nn(C4CCOCC4)c(N)c3C(N)=O)ccc2n1` [BKI-1841], for which the CC50 in data set [9] and in data set [10] was above 80000 nM throughout. Besides, the solubility was above 100 µM in data set [11] (aqueous medium at pH 2, pH 2, simulated gastric fluid, read-out: Solubility at pH 2) and above 100 µM in data set [11] (aqueous medium at pH 6.5, pH 6.5, aqueous buffer, read-out: Solubility at pH 6.5). The “difference in parasite excretion vs untreated control” value is listed as “no significant difference” in data set [12] (5 mg/kg QD days 6-10 postinfection), “no significant difference” in [12] (15 mg/kg QD days 6-10 postinfection), “Significant differences” in data set [12] (30 mg/kg QD days 6-10 postinfection) and “Significant differences” in data set [12] (60 mg/kg QD days 6-10 postinfection). Moreover, the minimum efficacious dose in data set [12] (IFN-γ KO mice, once daily (QD) for 5 days, cleared parasite excretion to background by day 13 postinfection) was determined as 30 mg/kg. The “effects on MAP, HR, left ventricular contractility vs vehicle” value in data set [13] (anesthetized rats, 30-minute IV infusions of 3, 10, 30 mg/kg, significant >15%) is listed as “No significant effects”. For the same compound, the figures for the HR in data set [13] (IV 3 mg/kg), in data set [13] (IV 10 mg/kg) and in data set [13] (IV 30 mg/kg) were 5%, 3% and 0%, respectively. For the same compound, the MAP is 1% in data set [13] (IV 3 mg/kg), 3% in [13] (IV 10 mg/kg) and 2% in data set [13] (IV 30 mg/kg). The figures for the “dP/dt@50” value in data set [13] (IV 3 mg/kg), in [13] (IV 10 mg/kg) and in data set [13] (IV 30 mg/kg) were 3%, 4% and 11%, respectively.
